These results are taken from patent US9120791B2, “Indolizine compounds, a process for their preparation and pharmaceutical compositions containing them” (LES LABORATOIRES SERVIER, priority 2012, dated 2015).

For one experiment, the target named is Bcl-2 protein (Homo sapiens (Human), UniProt P10415). Put plainly: Inhibition of Bcl-2 by the fluorescence polarisation technique. The experiment is classed as binding. As to conditions: fluorescence polarisation test; concentration that inhibits fluorescence polarisation by 50%; read-out: IC50 (nM) Bcl-2 FP. As to the method: The fluorescence polarisation tests were carried out on microplates (384 wells). […] After incubation for 2 hours, the fluorescence polarisation is measured.
Chain of Bcl-2 protein (P10415 whole entry): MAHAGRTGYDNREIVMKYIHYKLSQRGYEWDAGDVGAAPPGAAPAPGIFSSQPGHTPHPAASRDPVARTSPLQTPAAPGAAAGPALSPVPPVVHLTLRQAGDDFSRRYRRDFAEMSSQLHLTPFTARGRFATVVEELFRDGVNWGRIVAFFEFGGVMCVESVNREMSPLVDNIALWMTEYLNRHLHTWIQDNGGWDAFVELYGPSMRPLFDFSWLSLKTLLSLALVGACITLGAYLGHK
On the technique in general: Fluorescence polarisation rises when a labelled molecule tumbles more slowly, as on binding a larger partner.

The test system of experiment [1] is RS4;11 leukaemia tumour line. Nature of the experiment: In vitro cytotoxicity (Microculture Tetrazolium Assay, 48 hours). The experiment is classed as cell-based. As to conditions: RS4;11 cells, 48 hours exposure, MTT, concentration that inhibits cell viability by 50%, read-out: IC50 (nM) MTT RS4. As for the experimental part:
The cytotoxicity studies were carried out on the RS4;11 leukaemia tumour line.
The cells are distributed onto microplates and exposed to the test compounds for 48 hours.

For a further experiment, the system named is caspase 3. Put plainly: Induction of caspase activity in vivo (DEVDase activity in tumour lysates, RS4;11 xenograft). Details: species or system mice (SCID strain). As to conditions: oral treatment, 16 hours after treatment, RS4;11 xenograft in SCID mice; for Activation factor (versus control), DEVDase activity in the tumours / fold induction at 50 mg/kg: 50 mg/kg. As for the experimental part:
The ability of the compounds of the invention to activate caspase 3 is evaluated in a xenograft model of RS4;11 leukaemia cells.
1×10^7 RS4;11 cells are grafted sub-cutaneously into immunosuppressed mice (SCID strain). 25 to 30 days after the graft, the animals are treated orally with the various compounds. Sixteen hours after treatment, the tumour masses are recovered and lysed, and the caspase 3 activity is measured in the tumour lysates.
This enzymatic measurement is carried out by assaying the appearance of a fluorigenic cleavage product (DEVDase activity, Promega). It is expressed in the form of an activation factor corresponding to the ratio between the two caspase activities:the activity for the treated mice divided by the activity for the control mice.

The mark [2] stands for this setting: Mus musculus, read-out: Activation factor (versus control), DEVDase activity in the tumours.

Where a name gives a salt, the structure may show the parent alone. Read-outs that look alike come from different tables or passages of the source.

Take `Cc1ccc(N(C(=O)c2cc(-c3cc4c(cc3C(=O)N3Cc5ccccc5C[C@H]3CN3CCOCC3)OCO4)n3c2CCCC3)c2ccc(O)cc2)cc1` [Example 2, N-(4-Hydroxyphenyl)-N-(4-methylphenyl)-3-{6-[((3S)-3-(4-morpholinylmethyl)-3,4-dihydro-2(1H)-isoquinolinyl)carbonyl]-1,3-benzodioxol-5-yl}-5,6,7,8-tetrahydro-1-indolizine carboxamide hydrochloride]: the IC50 was 20 nM at Bcl-2 protein and 49.8 nM in experiment [1] (Homo sapiens). Moreover, in the experiment with caspase 3 (Mus musculus, 100 mg/kg, read-out: Activation factor (versus control), DEVDase activity in the tumours), the fold induction at 100 mg/kg came out at 27.8.
As to `Cl.O=C(c1cc(-c2cc3c(cc2C(=O)N2Cc4ccccc4C[C@H]2CN2CCOCC2)OCO3)n2ccccc12)N(c1ccccc1)c1ccc(O)cc1` [Example 58, N-(4-Hydroxyphenyl)-3-{6-[((3S)-3-(4-morpholinylmethyl)-3,4-dihydro-2(1H)-isoquinolinyl)carbonyl]-1,3benzodioxol-5-yl}-N-phenyl-indolizine carboxamide hydrochloride], the IC50 in experiment [1] turned out to be 40.1 nM. For the same compound, the “Activation factor (versus control), DEVDase activity in the tumours” value in the experiment with caspase 3 was 23.3 (50 mg/kg).
With `Cn1ccc2cc(N(C(=O)c3cc(-c4cc(Cl)ccc4C(=O)N4Cc5ccccc5C[C@H]4CN4CCOCC4)n4c3CCCC4)c3ccc(O)cc3)ccc21` [Example 22, 3-{5-Chloro-2-[((3S)-3-(4-morpholinylmethyl)-3,4-dihydro-2(1H)-isoquinolinyl)carbonyl]phenyl}-N-(4-hydroxyphenyl)-N-(1-methyl-1H-indol-5-yl)-5,6,7,8-tetrahydro-1-indolizine carboxamide hydrochloride], the IC50 was determined as 27 nM at Bcl-2 protein and 19.1 nM in experiment [1] (Homo sapiens). For the same compound, the fold induction at 50 mg/kg in the experiment on caspase 3 (setting [2]) stood at 11.3.
For `Cn1ccc2cc(N(C(=O)c3cc(-c4cc5c(cc4C(=O)N4Cc6ccccc6C[C@H]4CN4CCOCC4)OCO5)n4ccccc34)c3ccc(O)cc3)ccc21` [Example 59, N-(4-Hydroxyphenyl)-N-(1-methyl-1H-indol-5-yl)-3-{6-[((3S)-3-(4-morpholinylmethyl)-3,4-dihydro-2(1H)-isoquinolinyl)carbonyl]-1,3-benzodioxol-5-yl}-1-indolizine carboxamide hydrochloride], the concentration for half-maximal inhibition (IC50) on Bcl-2 protein was found to be 13 nM; in experiment [1] (Homo sapiens) it was 8.13 nM. In addition, the fold induction at 50 mg/kg in the experiment on caspase 3 (setting [2]) was 23.
On to `Cl.O=C(c1cc(-c2cc3c(cc2C(=O)N2Cc4ccccc4C[C@H]2CN2CCOCC2)OCO3)n2c1CCCC2)N(c1ccc(O)cc1)c1ccc(Cl)cc1` [Example 3, N-(4-Chlorophenyl)-N-(4-hydroxyphenyl)-3-{6-[((3S)-3-(4-morpholinylmethyl)-3,4-dihydro-2(1H)-isquinolinyl)carbonyl]-1,3-benzdioxol-5-yl}-5,6,7,8-tetrahydro-1-indolizine carboxamide hydrochloride], for which, in experiment [1], the IC50 amounted to 44.7 nM. Besides, the “Activation factor (versus control), DEVDase activity in the tumours” value in the experiment with caspase 3 is 5.7 (50 mg/kg).
As to `Cn1ccc2cc(N(C(=O)c3cc(-c4cc(Cl)ccc4C(=O)N4Cc5ccccc5C[C@H]4CN4CCOCC4)n4ccccc34)c3ccc(O)cc3)ccc21` [Example 67, 3-{5-Chloro-2-[((3S)-3-(4-morpholinylmethyl)-3,4-dihydro-2(1H)-isoquinolinyl)carbonyl]phenyl}-N-(4-hydroxyphenyl)-N-(1-methyl-1H-indol-5-yl)-1-indolizine carboxamide hydrochloride], the results for the IC50 (on Bcl-2 protein; in experiment [1] (Homo sapiens)) were 24 nM and 17.7 nM, respectively. The fold induction at 50 mg/kg with caspase 3 (setting [2]) is 18.9.
On to `CN1CCOc2cc(N(C(=O)c3cc(-c4cc5c(cc4C(=O)N4Cc6ccccc6C[C@H]4CN4CCOCC4)OCCO5)n4c3CCCC4)c3ccc(O)cc3)ccc21` [Example 41, N-(4-Hydroxyphenyl)-N-(4-methyl-3,4-dihydro-2H-1,4-benzoxazin-7-yl)-3-{7-[((3S)-3-(4-morpholinylmethyl)-3,4-dihydro-2(1H)-isoquinolinyl)carbonyl]-2,3-dihydro-1,4-benzodioxin-6-yl}-5,6,7,8-tetrahydro-1-indolizine carboxamide hydrochloride], for which the figures for the IC50 (on Bcl-2 protein; in experiment [1] (Homo sapiens)) were 26 nM and 44 nM, respectively.

As usually defined, the IC50 is the concentration that inhibits the measured activity by half.
